Source: ChEMBL document CHEMBL4325871 (Eur J Med Chem, 2019)

Experiments:
[1] = molecular target: Dual serine/threonine and tyrosine protein kinase (Homo sapiens) (UniProt Q6XUX3); experiment: Inhibition of human RIPK5 assessed as residual activity at 1 uM using MBP as substrate by [gamma-33P]-ATP assay relative to control
[2] = molecular target: SNF-related serine/threonine-protein kinase (Homo sapiens) (UniProt Q9NRH2); experiment: Inhibition of human SNRK assessed as residual activity at 1 uM using MBP as substrate by [gamma-33P]-ATP assay relative to control
[3] = molecular target: TRAF2 and NCK-interacting protein kinase (Homo sapiens) (UniProt Q9UKE5); experiment: Inhibition of human TNIK assessed as residual activity at 1 uM using RLGRDKYKTLRQIRQ as substrate by [gamma-33P]-ATP assay relative to control
[4] = molecular target: Citron Rho-interacting kinase (Homo sapiens) (UniProt O14578); experiment: Inhibition of human STK21 assessed as residual activity at 1 uM using MBP as substrate by [gamma-33P]-ATP assay relative to control
[5] = molecular target: Tyrosine-protein kinase TXK (Homo sapiens) (UniProt P42681); experiment: Inhibition of human TXK assessed as residual activity at 1 uM using EAIYAAPFAKKK as substrate by [gamma-33P]-ATP assay relative to control
[6] = molecular target: Mitogen-activated protein kinase 12 (Homo sapiens) (UniProt P53778); experiment: Inhibition of human p38gamma assessed as residual activity at 1 uM using MBP as substrate by [gamma-33P]-ATP assay relative to control
[7] = molecular target: Serine/threonine-protein kinase/endoribonuclease IRE2 (Homo sapiens) (UniProt Q76MJ5); experiment: Inhibition of human ERN2 assessed as residual activity at 1 uM using MBP as substrate by [gamma-33P]-ATP assay relative to control
[8] = molecular target: Myosin light chain kinase (Homo sapiens) (UniProt Q32MK0); experiment: Inhibition of human MYLK3 assessed as residual activity at 1 uM using KKRPQRRYSNVF as substrate by [gamma-33P]-ATP assay relative to control
[9] = molecular target: CDK6/cyclin D1 (Homo sapiens) (UniProt P24385+Q00534); experiment: Inhibition of human CDK6/cyclin-D1 assessed as residual activity at 1 uM using RB protein as substrate by [gamma-33P]-ATP assay relative to control; assay type: protein-complex assay
[10] = molecular target: Myosin light chain kinase, smooth muscle (Homo sapiens) (UniProt Q15746); experiment: Inhibition of human MLCK assessed as residual activity at 1 uM using KKLNRTLSFAEPG as substrate by [gamma-33P]-ATP assay relative to control
[11] = molecular target: Tyrosine-protein kinase HCK (Homo sapiens) (UniProt P08631); experiment: Inhibition of human HCK assessed as residual activity at 1 uM using KVEKIGEGTYGVVYK as substrate by [gamma-33P]-ATP assay relative to control
[12] = molecular target: Serine/threonine-protein kinase Nek6 (Homo sapiens, UniProt Q9HC98); experiment: Inhibition of human NEK6 assessed as residual activity at 1 uM using casein as substrate by [gamma-33P]-ATP assay relative to control
[13] = molecular target: Serine/threonine-protein kinase Nek8 (Homo sapiens) (UniProt Q86SG6); experiment: Inhibition of human NEK8 assessed as residual activity at 1 uM using casein as substrate by [gamma-33P]-ATP assay relative to control
[14] = molecular target: Leucine-rich repeat serine/threonine-protein kinase 2 (Homo sapiens) (UniProt Q5S007); experiment: Inhibition of human LRRK2 assessed as residual activity at 1 uM using RLGRDKYKTLRQIRQ as substrate by [gamma-33P]-ATP assay relative to control
[15] = molecular target: Dual specificity mitogen-activated protein kinase kinase 2 (Homo sapiens) (UniProt P36507); experiment: Inhibition of human MEK2 assessed as residual activity at 1 uM using ERK2 as substrate by [gamma-33P]-ATP assay relative to control
[16] = molecular target: Death-associated protein kinase 1 (Homo sapiens) (UniProt P53355); experiment: Inhibition of human DAPK1 assessed as residual activity at 1 uM using KKLNRTLSFAEPG as substrate by [gamma-33P]-ATP assay relative to control
[17] = molecular target: Serine/threonine-protein kinase 16 (Homo sapiens) (UniProt O75716); experiment: Inhibition of human STK16 assessed as residual activity at 1 uM using MBP as substrate by [gamma-33P]-ATP assay relative to control
[18] = molecular target: Serine/threonine-protein kinase D3 (Homo sapiens) (UniProt O94806); experiment: Inhibition of human PKCnu assessed as residual activity at 1 uM using KKLNRTLSVA as substrate by [gamma-33P]-ATP assay relative to control
[19] = molecular target: Proto-oncogene tyrosine-protein kinase receptor Ret (Homo sapiens) (UniProt P07949); experiment: Inhibition of human RET assessed as residual activity at 1 uM using KKKVSRSGLYRSPSMPENLNRPR as substrate by [gamma-33P]-ATP assay relative to control
[20] = molecular target: Myosin-IIIb (Homo sapiens) (UniProt Q8WXR4); experiment: Inhibition of human MYO3B assessed as residual activity at 1 uM using MBP as substrate by [gamma-33P]-ATP assay relative to control

Citron Rho-interacting kinase (Homo sapiens), sequence (O14578 whole entry): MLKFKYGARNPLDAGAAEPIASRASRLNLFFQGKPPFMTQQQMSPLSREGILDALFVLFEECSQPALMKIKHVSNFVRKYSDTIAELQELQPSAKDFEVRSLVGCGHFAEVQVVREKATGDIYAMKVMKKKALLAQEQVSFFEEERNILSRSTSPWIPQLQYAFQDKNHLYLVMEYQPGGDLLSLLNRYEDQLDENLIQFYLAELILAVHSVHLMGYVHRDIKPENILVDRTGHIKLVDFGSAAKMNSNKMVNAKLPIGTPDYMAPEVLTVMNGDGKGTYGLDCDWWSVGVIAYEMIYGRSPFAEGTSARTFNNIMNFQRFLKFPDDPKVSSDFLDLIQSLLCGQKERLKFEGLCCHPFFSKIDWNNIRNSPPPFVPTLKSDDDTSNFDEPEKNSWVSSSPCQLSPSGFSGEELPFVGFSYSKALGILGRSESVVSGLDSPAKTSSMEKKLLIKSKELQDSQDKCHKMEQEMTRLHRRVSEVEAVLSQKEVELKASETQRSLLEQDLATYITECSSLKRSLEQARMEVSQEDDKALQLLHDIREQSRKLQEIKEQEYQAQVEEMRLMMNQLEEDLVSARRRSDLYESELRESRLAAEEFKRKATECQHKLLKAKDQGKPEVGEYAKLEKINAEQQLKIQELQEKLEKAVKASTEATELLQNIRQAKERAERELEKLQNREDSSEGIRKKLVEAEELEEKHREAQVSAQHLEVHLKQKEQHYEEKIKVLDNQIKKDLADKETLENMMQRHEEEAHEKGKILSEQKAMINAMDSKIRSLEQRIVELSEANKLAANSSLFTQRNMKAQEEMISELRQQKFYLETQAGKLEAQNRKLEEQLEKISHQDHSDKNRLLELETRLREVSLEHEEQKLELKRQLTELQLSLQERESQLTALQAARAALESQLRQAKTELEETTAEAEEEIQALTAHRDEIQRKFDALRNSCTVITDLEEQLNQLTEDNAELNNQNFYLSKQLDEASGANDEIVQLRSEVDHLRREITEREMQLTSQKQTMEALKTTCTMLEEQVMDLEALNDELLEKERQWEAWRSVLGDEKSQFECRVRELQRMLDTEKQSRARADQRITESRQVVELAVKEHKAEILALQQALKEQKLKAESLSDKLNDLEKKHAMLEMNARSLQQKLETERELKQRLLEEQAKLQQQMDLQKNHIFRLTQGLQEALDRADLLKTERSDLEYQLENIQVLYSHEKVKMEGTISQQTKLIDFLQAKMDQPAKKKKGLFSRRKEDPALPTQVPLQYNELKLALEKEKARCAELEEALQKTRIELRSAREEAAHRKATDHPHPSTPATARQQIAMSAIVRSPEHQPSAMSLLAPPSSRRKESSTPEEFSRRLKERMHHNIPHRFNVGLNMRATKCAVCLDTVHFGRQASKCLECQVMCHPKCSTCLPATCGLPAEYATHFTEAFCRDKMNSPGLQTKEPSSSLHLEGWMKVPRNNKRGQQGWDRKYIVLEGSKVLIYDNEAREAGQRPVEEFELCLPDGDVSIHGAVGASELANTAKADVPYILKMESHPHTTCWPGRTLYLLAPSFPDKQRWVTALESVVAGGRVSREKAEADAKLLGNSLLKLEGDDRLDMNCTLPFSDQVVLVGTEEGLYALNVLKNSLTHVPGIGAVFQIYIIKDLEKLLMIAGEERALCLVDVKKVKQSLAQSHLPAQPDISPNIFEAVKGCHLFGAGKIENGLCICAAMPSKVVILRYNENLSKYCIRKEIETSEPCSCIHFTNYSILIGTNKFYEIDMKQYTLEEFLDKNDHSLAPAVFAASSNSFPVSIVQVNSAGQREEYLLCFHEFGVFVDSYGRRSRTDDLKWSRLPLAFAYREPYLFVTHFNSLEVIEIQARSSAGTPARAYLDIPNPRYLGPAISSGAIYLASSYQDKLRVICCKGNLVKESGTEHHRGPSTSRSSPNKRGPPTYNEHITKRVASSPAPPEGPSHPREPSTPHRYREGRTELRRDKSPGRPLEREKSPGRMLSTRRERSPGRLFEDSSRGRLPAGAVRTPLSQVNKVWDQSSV
Serine/threonine-protein kinase Nek8 (Homo sapiens), sequence (Q86SG6 whole entry): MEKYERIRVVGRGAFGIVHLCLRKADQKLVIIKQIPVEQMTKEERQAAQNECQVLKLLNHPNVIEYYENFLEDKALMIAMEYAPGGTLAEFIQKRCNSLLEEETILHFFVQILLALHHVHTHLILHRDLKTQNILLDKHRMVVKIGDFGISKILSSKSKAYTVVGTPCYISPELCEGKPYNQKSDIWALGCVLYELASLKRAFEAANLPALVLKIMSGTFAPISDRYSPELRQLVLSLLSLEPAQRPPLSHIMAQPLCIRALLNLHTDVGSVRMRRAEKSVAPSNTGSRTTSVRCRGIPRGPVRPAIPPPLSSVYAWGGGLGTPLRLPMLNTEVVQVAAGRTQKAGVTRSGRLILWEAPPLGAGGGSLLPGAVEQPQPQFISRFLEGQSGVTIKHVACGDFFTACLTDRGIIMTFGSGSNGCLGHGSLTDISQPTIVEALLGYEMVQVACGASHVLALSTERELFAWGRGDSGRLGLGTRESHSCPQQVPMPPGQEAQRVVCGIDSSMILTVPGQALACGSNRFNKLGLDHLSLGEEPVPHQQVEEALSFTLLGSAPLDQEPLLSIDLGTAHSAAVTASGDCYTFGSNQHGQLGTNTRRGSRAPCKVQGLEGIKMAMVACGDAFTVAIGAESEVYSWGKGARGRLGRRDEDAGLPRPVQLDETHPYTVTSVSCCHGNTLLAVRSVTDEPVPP
Dual specificity mitogen-activated protein kinase kinase 2 (Homo sapiens), sequence (P36507 whole entry): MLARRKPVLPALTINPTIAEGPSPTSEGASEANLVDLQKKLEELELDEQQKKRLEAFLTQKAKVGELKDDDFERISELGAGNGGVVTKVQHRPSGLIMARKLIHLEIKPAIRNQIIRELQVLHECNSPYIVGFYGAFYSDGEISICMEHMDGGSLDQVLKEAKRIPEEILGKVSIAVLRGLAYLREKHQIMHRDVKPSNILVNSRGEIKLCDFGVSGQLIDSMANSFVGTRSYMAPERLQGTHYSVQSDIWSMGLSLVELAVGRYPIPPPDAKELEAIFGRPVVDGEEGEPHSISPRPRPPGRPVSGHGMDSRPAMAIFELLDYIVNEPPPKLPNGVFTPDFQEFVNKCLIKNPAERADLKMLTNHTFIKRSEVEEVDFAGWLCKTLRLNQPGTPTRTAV
Serine/threonine-protein kinase/endoribonuclease IRE2 (Homo sapiens), sequence (Q76MJ5 35-926 limits assumed): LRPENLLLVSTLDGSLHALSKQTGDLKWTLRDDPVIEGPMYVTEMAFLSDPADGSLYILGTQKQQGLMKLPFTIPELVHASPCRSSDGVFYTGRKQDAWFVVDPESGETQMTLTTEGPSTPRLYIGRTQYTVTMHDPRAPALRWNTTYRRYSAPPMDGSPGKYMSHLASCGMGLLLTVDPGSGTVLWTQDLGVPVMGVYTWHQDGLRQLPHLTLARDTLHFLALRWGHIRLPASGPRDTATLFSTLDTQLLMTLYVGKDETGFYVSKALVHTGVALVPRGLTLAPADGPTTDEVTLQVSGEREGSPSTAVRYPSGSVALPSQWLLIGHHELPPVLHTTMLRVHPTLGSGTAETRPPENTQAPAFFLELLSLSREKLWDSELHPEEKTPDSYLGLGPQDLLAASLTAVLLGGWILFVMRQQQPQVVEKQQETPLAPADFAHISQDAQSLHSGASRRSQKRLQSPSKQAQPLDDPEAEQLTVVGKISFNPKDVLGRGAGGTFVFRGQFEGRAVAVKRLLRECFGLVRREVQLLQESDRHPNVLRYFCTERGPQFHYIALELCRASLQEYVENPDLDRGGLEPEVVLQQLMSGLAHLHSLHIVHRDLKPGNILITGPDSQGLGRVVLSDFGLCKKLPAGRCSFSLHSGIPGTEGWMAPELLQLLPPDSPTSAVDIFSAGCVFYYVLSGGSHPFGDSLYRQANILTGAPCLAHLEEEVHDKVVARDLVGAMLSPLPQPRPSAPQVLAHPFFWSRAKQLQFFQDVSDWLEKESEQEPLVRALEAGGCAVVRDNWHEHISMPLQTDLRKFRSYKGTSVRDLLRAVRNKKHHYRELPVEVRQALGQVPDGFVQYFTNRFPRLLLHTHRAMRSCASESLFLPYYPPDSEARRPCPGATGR
Tyrosine-protein kinase HCK (Homo sapiens), sequence (P08631 2-526 limits assumed): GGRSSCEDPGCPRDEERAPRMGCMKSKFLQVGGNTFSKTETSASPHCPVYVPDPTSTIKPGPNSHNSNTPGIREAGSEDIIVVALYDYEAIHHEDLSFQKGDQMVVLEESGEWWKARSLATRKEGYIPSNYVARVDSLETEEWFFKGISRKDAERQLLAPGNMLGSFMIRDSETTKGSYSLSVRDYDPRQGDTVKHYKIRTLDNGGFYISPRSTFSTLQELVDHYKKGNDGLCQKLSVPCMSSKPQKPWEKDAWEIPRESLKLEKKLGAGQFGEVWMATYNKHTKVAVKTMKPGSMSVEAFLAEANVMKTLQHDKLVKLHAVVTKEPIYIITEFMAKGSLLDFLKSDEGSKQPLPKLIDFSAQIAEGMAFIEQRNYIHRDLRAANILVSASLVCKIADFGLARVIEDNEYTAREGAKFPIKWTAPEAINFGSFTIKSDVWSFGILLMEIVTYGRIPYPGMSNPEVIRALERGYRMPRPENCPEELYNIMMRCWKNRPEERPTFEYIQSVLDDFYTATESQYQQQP
Serine/threonine-protein kinase Nek6, sequence (Q9HC98 whole entry): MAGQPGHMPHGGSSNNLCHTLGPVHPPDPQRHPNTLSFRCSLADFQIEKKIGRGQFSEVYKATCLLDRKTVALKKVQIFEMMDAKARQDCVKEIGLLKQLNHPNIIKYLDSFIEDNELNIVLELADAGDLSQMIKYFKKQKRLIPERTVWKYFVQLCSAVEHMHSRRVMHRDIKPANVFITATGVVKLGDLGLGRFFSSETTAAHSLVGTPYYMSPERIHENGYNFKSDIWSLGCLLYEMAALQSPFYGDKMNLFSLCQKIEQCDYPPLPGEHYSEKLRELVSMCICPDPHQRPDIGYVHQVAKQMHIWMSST

Q: Which Activity [1] does the source give for `C(=C\c1ccccc1)/C[N+]12CN3CN(CN(C3)C1)C2` here?
A: 91 to 92.4%

Q: And the Activity [2]?
A: 79.8 to 81%

Q: What about the Activity [3] of the same compound?
A: 89.3 to 93.7%

Q: And the Activity [4]?
A: 92.4 to 95.5%

Q: And the Activity [5]?
A: 93.5 to 93.8%

Q: What about the Activity [6] of the same compound?
A: 93.7 to 94.8%

Q: What about the Activity [7] of the same compound?
A: 94.5 to 96.6%

Q: And the Activity [8]?
A: 92 to 96.4%

Q: With `ClC/C=C/C[N+]12CN3CN(CN(C3)C1)C2` as the compound, how does the Activity [9] read?
A: 97.5 to 97.7%

Q: What about the Activity [10] of the same compound?
A: 90.5 to 94.9%

Q: What about the Activity [11] of the same compound?
A: 93.1 to 95.5%

Q: What about the Activity [12] of the same compound?
A: 95.3 to 95.6%

Q: And the Activity [13]?
A: 88.6 to 89%

Q: What about the Activity [14] of the same compound?
A: 91.5 to 93.5%

Q: What about the Activity [15] of the same compound?
A: 85.2 to 94.1%

Q: What about the Activity [16] of the same compound?
A: 119 to 135%

Q: And the Activity [17]?
A: 93.1 to 95.2%

Q: And the Activity [18]?
A: 93.2 to 96.7%

Q: And the Activity [19]?
A: 96.4 to 96.7%

Q: And the Activity [20]?
A: 84.1 to 87.7%
